Assays:
[1] = target: Voltage-gated inwardly rectifying potassium channel KCNH2 (Homo sapiens, UniProt Q12809); assay type: functional
[2] = target: T1, Muscarinic acetylcholine receptor M2 (Homo sapiens, UniProt P08172)
T1 sequence (P08172 whole entry): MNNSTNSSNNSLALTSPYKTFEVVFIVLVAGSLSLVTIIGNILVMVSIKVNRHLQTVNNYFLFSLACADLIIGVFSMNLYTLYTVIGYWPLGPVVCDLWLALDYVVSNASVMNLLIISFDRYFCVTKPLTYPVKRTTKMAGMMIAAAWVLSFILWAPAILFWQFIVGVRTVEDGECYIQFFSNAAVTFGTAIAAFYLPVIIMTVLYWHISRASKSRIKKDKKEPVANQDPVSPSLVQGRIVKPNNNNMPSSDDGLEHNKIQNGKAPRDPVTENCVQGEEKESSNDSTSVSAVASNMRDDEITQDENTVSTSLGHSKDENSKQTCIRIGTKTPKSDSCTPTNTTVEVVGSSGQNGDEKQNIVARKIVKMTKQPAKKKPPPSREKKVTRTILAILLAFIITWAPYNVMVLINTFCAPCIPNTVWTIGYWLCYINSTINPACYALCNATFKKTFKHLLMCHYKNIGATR

[3] = target: 5-hydroxytryptamine receptor 2B (Homo sapiens, UniProt P41595); assay type: functional, cell-based
[4] = target: T2, Alpha-2A adrenergic receptor (Homo sapiens, UniProt P08913)
T2 sequence (P08913 whole entry): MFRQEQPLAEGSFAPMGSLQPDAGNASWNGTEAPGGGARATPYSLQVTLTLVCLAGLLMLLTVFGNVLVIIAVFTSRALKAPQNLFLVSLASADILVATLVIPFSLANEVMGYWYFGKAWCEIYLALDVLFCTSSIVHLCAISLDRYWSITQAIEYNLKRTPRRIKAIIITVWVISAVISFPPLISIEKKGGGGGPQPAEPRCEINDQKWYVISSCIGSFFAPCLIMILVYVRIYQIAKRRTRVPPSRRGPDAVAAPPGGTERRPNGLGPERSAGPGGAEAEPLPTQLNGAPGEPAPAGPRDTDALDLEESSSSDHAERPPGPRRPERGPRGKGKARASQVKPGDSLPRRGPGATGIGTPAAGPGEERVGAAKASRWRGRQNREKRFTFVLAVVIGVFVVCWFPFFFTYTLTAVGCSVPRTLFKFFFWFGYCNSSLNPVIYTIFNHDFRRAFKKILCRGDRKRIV

[5] = target: T3, Amine oxidase [flavin-containing] A (Homo sapiens, UniProt P21397); assay type: functional
T3 sequence (P21397 whole entry): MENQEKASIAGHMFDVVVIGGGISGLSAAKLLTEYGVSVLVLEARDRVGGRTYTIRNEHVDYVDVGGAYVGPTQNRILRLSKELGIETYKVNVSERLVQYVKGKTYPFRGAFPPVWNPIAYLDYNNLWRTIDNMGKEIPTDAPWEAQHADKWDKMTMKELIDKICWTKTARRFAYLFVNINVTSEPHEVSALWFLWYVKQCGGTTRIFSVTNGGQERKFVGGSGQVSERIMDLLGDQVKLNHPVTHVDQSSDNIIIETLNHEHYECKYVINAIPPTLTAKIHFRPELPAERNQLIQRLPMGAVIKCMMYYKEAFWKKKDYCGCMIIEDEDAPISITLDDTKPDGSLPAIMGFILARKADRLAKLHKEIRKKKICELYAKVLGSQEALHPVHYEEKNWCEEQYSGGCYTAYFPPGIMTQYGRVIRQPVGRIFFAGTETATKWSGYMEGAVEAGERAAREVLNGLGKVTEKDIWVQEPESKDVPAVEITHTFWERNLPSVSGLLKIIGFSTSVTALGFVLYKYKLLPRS

[6] = target: Sodium-dependent dopamine transporter (Homo sapiens, UniProt Q01959)
[7] = target: cGMP-inhibited 3',5'-cyclic phosphodiesterase 3A (Homo sapiens, UniProt Q14432); assay type: functional
Thromboxane A2 receptor [8] = target: T4, Thromboxane A2 receptor (Homo sapiens, UniProt P21731); assay type: functional, cell-based
T4 sequence (P21731 whole entry): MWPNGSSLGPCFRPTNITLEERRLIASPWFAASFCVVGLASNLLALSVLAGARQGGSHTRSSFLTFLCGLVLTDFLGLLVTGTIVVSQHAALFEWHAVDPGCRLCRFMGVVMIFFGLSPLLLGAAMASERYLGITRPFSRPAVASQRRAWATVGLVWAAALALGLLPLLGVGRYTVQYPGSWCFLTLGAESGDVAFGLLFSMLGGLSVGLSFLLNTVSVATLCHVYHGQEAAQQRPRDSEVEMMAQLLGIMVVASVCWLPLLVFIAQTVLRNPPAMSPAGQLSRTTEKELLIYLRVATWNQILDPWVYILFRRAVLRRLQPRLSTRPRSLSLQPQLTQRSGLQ

Histamine H3 receptor = Histamine H3 receptor (Homo sapiens, UniProt Q9Y5N1)
[9] = target: T5, 5-hydroxytryptamine receptor 1A (Homo sapiens, UniProt P08908)
T5 sequence (P08908 whole entry): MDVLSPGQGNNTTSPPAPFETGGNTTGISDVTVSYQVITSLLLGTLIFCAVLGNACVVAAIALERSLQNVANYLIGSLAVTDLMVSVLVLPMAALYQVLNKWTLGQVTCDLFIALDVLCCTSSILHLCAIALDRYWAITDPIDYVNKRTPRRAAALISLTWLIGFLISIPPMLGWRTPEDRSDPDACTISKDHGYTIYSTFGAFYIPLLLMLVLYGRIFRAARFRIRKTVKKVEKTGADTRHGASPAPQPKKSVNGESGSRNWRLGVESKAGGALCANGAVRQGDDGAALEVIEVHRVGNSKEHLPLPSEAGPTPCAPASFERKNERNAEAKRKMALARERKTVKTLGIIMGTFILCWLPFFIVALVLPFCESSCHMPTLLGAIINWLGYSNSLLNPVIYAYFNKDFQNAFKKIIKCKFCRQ

[10] = target: 3',5'-cyclic-AMP phosphodiesterase 4A (Homo sapiens, UniProt P27815); assay type: functional
Acetylcholinesterase = Acetylcholinesterase (Homo sapiens, UniProt P22303); assay type: functional
Prothrombin = Prothrombin (Homo sapiens, UniProt P00734); assay type: functional
Thromboxane A2 receptor [11] = target: T4, Thromboxane A2 receptor; assay type: functional, cell-based; remark: listed apart in the source
Note: assay procedure not described here.

Sequence of Sodium-dependent dopamine transporter (Q01959 whole entry): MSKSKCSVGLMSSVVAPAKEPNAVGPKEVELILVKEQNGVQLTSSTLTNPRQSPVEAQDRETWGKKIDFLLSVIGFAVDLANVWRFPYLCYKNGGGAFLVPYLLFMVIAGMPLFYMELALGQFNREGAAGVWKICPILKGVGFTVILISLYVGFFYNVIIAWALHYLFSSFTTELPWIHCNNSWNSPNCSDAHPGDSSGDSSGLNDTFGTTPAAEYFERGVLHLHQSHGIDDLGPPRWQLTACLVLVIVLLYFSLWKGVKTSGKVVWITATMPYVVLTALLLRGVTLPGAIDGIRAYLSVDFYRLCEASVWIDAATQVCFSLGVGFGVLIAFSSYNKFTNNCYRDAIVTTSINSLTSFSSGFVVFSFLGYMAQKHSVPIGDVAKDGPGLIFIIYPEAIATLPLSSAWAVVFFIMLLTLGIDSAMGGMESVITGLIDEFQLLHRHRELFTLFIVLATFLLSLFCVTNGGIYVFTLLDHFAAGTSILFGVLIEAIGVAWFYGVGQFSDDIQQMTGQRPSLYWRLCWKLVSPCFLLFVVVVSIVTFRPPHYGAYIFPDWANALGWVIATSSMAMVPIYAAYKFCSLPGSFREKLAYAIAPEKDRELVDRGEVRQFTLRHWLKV
Sequence of Voltage-gated inwardly rectifying potassium channel KCNH2 (Q12809 whole entry): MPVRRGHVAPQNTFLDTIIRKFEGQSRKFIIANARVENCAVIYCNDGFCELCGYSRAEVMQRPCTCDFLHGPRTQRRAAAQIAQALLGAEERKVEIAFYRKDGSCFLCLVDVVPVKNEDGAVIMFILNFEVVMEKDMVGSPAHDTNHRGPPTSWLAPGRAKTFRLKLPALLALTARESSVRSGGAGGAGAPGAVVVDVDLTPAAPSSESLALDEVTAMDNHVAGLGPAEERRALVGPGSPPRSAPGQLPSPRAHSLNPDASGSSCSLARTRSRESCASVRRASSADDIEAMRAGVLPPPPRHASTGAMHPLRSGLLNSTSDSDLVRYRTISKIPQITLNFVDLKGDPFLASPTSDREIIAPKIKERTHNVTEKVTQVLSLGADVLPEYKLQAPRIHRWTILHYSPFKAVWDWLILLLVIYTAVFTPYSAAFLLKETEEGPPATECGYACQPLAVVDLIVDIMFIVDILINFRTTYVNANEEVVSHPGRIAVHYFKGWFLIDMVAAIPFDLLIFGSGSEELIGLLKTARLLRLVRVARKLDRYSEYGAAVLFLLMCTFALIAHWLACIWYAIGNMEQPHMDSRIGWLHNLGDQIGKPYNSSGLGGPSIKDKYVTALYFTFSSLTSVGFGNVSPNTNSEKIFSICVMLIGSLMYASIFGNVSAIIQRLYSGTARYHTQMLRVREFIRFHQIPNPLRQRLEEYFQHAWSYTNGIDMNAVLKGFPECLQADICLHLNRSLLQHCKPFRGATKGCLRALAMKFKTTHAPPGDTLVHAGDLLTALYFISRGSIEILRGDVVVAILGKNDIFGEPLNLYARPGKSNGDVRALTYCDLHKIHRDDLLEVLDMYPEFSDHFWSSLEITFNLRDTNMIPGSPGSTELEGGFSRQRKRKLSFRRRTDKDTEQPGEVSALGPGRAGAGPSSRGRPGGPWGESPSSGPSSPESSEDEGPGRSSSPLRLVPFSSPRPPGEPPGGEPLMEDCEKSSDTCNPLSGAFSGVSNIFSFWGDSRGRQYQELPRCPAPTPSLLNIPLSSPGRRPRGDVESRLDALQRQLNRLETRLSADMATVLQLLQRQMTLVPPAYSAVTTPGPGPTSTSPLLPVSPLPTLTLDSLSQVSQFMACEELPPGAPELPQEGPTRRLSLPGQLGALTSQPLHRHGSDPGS
Sequence of cGMP-inhibited 3',5'-cyclic phosphodiesterase 3A (Q14432 whole entry): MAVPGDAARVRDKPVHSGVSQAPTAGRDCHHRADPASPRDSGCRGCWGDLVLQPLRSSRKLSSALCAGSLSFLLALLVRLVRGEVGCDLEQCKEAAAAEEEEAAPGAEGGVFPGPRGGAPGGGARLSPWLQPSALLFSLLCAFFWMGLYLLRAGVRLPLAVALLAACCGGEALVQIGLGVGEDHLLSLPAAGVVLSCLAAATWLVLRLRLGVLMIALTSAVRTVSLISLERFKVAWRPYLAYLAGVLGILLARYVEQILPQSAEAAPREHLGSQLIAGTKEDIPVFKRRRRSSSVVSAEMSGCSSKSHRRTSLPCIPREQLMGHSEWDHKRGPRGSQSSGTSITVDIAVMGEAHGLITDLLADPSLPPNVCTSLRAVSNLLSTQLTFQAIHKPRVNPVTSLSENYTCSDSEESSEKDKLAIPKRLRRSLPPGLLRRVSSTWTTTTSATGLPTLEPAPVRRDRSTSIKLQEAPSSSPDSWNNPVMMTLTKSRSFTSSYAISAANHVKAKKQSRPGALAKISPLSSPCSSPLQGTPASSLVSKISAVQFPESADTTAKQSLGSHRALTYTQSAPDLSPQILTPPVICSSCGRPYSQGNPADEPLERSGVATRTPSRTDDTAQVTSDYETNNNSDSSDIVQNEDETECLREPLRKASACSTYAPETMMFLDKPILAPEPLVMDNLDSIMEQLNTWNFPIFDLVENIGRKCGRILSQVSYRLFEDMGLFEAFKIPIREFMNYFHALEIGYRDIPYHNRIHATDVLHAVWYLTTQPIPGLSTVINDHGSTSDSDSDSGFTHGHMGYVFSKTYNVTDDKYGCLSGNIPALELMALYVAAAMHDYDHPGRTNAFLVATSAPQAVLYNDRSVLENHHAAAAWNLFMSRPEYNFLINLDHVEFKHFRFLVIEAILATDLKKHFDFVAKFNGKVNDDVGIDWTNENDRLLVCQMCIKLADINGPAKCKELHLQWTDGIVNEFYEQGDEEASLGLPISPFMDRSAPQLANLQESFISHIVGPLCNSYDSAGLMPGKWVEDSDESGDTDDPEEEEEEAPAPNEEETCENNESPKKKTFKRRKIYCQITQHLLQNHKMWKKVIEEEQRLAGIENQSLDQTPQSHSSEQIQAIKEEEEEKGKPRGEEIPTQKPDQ
Sequence of Acetylcholinesterase (P22303 whole entry): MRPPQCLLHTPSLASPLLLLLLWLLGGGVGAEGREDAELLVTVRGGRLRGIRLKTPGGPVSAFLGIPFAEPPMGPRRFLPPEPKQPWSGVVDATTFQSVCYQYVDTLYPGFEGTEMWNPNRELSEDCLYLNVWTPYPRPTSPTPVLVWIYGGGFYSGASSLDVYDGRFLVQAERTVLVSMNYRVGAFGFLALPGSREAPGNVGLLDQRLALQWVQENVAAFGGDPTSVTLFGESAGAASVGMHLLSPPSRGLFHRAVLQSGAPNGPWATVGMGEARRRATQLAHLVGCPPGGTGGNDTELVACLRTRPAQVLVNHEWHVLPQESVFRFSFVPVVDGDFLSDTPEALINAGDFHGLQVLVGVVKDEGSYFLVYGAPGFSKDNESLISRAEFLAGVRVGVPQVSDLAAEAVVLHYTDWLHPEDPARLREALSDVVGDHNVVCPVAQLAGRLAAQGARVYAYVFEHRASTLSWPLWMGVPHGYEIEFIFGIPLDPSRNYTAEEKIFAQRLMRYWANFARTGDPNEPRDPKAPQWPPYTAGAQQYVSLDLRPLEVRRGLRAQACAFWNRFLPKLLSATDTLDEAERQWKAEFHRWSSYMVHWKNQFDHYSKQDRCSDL
Sequence of Histamine H3 receptor (Q9Y5N1 whole entry): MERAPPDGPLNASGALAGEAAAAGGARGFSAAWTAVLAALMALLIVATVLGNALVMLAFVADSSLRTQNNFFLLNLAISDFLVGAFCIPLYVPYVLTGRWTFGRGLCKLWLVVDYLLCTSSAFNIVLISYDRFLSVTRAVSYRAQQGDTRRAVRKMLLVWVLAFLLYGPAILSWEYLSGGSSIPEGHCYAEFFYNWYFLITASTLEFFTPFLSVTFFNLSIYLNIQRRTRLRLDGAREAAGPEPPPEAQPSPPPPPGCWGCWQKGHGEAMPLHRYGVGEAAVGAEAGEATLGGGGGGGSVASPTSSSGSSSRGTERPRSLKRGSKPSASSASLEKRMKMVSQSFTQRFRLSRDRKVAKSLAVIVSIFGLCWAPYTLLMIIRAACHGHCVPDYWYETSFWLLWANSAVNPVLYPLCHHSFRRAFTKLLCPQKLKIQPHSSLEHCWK
Sequence of 5-hydroxytryptamine receptor 2B (P41595 whole entry): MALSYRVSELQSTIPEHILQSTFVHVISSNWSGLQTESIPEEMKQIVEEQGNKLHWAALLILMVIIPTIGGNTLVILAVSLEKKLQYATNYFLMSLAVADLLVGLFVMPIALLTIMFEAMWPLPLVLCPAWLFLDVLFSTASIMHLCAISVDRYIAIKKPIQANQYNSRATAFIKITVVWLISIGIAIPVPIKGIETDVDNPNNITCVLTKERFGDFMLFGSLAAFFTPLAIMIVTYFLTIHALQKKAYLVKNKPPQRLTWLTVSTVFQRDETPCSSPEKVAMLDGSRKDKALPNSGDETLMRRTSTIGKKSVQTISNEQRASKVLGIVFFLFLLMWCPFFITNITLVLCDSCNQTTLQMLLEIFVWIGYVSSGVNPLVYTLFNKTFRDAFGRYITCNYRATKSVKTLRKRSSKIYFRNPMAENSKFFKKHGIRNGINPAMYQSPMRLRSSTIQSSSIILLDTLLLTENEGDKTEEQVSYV

C[N+]1(C)CCC(=C(c2ccccc2)c2ccccc2)CC1
AC50 [1]: 0.187 µM

C[N+](C)(C)CCOP(=O)([O-])OC[C@H](O)CO
AC50 [1]: > 30 µM

C[C@H](N[C@@H](CCc1ccccc1)C(=O)O)C(=O)N1Cc2ccccc2C[C@H]1C(=O)O
AC50 [2]: > 30 µM | AC50 [3]: > 30 µM | AC50 [4]: > 30 µM | AC50 [5]: > 30 µM | AC50 [6]: > 30 µM | AC50 [7]: > 30 µM | AC50 (Thromboxane A2 receptor [8]): > 30 µM | AC50 (Histamine H3 receptor): > 30 µM | AC50 [9]: > 30 µM | AC50 [10]: > 30 µM | AC50 (Acetylcholinesterase): > 30 µM | AC50 (Prothrombin): > 30 µM | AC50 (Thromboxane A2 receptor [11]): > 30 µM

CN(C)Cc1nnc2n1-c1ccc(Cl)cc1C(c1ccccc1)=NC2 [ADINAZOLAM]
AC50 [1]: > 30 µM

Cc1ccccc1-n1c(CF)nc2ccc(N)cc2c1=O [AFLOQUALONE]
AC50 [1]: > 30 µM

CC1(C)S[C@@H]2[C@H](/N=C/N3CCCCCC3)C(=O)N2[C@H]1C(=O)O [AMDINOCILLIN]
AC50 [2]: > 30 µM | AC50 [3]: > 30 µM | AC50 [4]: > 30 µM | AC50 [5]: > 30 µM | AC50 [6]: > 30 µM | AC50 [7]: > 30 µM | AC50 (Thromboxane A2 receptor [8]): > 30 µM | AC50 (Histamine H3 receptor): > 30 µM | AC50 [9]: > 30 µM | AC50 [10]: > 30 µM | AC50 (Acetylcholinesterase): > 30 µM | AC50 (Prothrombin): > 30 µM | AC50 (Thromboxane A2 receptor [11]): > 30 µM

CCC1(c2ccc(N)cc2)CCC(=O)NC1=O (stereo not drawn) [AMINOGLUTETHIMIDE]
AC50 [1]: > 30 µM

CC(=O)[C@]1(N)Cc2c(O)c3c(c(O)c2[C@@H](O[C@H]2C[C@H](O)[C@H](O)CO2)C1)C(=O)c1ccccc1C3=O [AMRUBICIN]
AC50 [2]: > 30 µM | AC50 [3]: > 30 µM | AC50 [4]: > 30 µM | AC50 [5]: > 30 µM | AC50 [6]: > 30 µM | AC50 [7]: > 30 µM | AC50 (Thromboxane A2 receptor [8]): 11.8 µM | AC50 (Histamine H3 receptor): > 30 µM | AC50 [9]: > 30 µM | AC50 [10]: > 30 µM | AC50 (Acetylcholinesterase): > 30 µM | AC50 (Prothrombin): > 30 µM | AC50 (Thromboxane A2 receptor [11]): > 1 µM

CC(=O)OC[C@H]1O[C@@H](n2ncc(=O)[nH]c2=O)[C@H](OC(C)=O)[C@@H]1OC(C)=O [AZARIBINE]
AC50 [2]: > 30 µM | AC50 [3]: > 30 µM | AC50 [4]: > 30 µM | AC50 [5]: > 30 µM | AC50 [6]: > 30 µM | AC50 [7]: > 30 µM | AC50 (Thromboxane A2 receptor [8]): > 30 µM | AC50 (Histamine H3 receptor): > 30 µM | AC50 [9]: > 30 µM | AC50 [10]: > 30 µM | AC50 (Acetylcholinesterase): > 30 µM | AC50 (Prothrombin): > 30 µM | AC50 (Thromboxane A2 receptor [11]): > 30 µM

CC1=C(C(=O)OC(C)C)C(c2cccc([N+](=O)[O-])c2)C(C(=O)OC2CN(C(c3ccccc3)c3ccccc3)C2)=C(N)N1 (stereo not drawn) [AZELNIDIPINE]
AC50 [1]: > 30 µM

CC(Cc1cccc(C(F)(F)F)c1)NCCOC(=O)c1ccccc1 (stereo not drawn) [BENFLUOREX]
AC50 [1]: 5.6 µM

CCOC(=O)c1ccc(N)cc1 [BENZOCAINE]
AC50 [1]: > 30 µM

CC(C)(Oc1ccc(CCNC(=O)c2ccc(Cl)cc2)cc1)C(=O)O [BEZAFIBRATE]
AC50 [1]: > 30 µM

O=C(O)COCCN1CCN(C(c2ccccc2)c2ccc(Cl)cc2)CC1 (stereo not drawn) [CETIRIZINE]
AC50 [4]: > 30 µM | AC50 [5]: > 30 µM | AC50 [7]: > 30 µM | AC50 (Thromboxane A2 receptor [8]): > 30 µM | AC50 (Histamine H3 receptor): > 30 µM | AC50 [9]: > 30 µM | AC50 [10]: > 30 µM | AC50 (Prothrombin): > 30 µM | AC50 (Thromboxane A2 receptor [11]): > 30 µM

C/C=C(/C(=C/C)c1ccc(O)cc1)c1ccc(O)cc1 [DIENESTROL]
AC50 [1]: > 30 µM

CN[C@]1(c2ccccc2Cl)CCCCC1=O [ESKETAMINE]
AC50 [1]: > 30 µM

COc1ccc([C@@H]2CC(=O)c3c(O)cc(O)cc3O2)cc1O [HESPERETIN]
AC50 [1]: > 30 µM

From ChEMBL document CHEMBL5291721, “A preclinical secondary pharmacology resource illuminates target-adverse drug reaction associations of marketed drugs” (Nat Commun, 2023)
